Patent US20250243343A1, “LUBRICANT COMPOSITION FOR PREPARING ETHYLENE-BASED POLYMER AND METHOD OF PREPARING ETHYLENE-BASED POLYMER USING THE SAME” (SK INNOVATION CO., LTD., priority 2024, published 2025)

How the values were obtained:
[1] = Measurement of solubility of the oxidation stabilizer in white mineral oil (visual observation); conditions: Table 1
Method: A lubricant composition was prepared by mixing a white mineral oil and the oxidation stabilizer of Table 1 below in a weight ratio of 100:0.1.
The lubricant composition was left for 1 hour and observed visually. If precipitation occurred or the lubricant composition discolored or became opaque, it was evaluated as “X.” When no precipitation occurred and the lubricant composition was colorless and transparent, it was evaluated as “O.”

[2] = Acrylic acid self-polymerization (time until PAA formation); conditions: for polymerization stability time / PAA formation inhibition effect (in words): Table 1; for Polymerization time: oil:stabilizer 100:0.5, AA:lubricant composition 1:1 by weight, 100° C.
Method: The reactor was heated to 100° C., followed by observing whether a self-polymer (PAA) was formed in the reactor every 10 minutes. As soon as the PAA was observed visually, the experiment was stopped and a polymerization time was recorded.

[3] = nitrogen atmosphere, PAA observed visually every 10 minutes

Compound	Polymerization time [2, 3]	also measured
COc1ccc(O)c(C(C)(C)C)c1 [A-1, Butylated hydroxyanisole]	>150 h	solubility in the white mineral oil (in words) [1]: high; polymerization stability time / PAA formation inhibition effect (in words) [2]: greatly increased
COc1cc(C(C)(C)C)c(O)c(C(C)(C)C)c1 [A-2, 2,6-Di-tert-butyl-4-methoxyphenol]	23 h	–
COc1ccc(O)c(C(C)(C)C)c1 [A-3, 3-tert-butyl-4-hydroxyanisole]	72 h	–
Cc1cc(C(C)(C)C)c(O)c(C(C)(C)C)c1 [B-1, Butylated hydroxytoluene]	2 h	polymerization stability time / PAA formation inhibition effect (in words) [2]: greatly reduced
COc1ccc(O)cc1 [B-2, 4-Methoxyphenol]	>150 h	solubility in the white mineral oil (in words) [1]: greatly decreased
c1ccc2c(c1)Nc1ccccc1S2 [B-3, Phenothiazine]	>150 h	solubility in the white mineral oil (in words) [1]: not substantially dissolved
Cc1c(C)c2c(c(C)c1O)CC[C@@](C)(CCC[C@H](C)CCC[C@H](C)CCCC(C)C)O2 [B-4, Vitamin E]	0.5 h	–
CC(C)(C)c1cccc(C(C)(C)C)c1O [B-5, 2,6-Di-tert-butylphenol]	–	Polymerization time ([2]; class symbol): — (When the PAA was formed within 10 minutes, it was evaluated as “-.”)
CC(C)(C)c1cc(CO)cc(C(C)(C)C)c1O [B-6, 2,6-Di-tert-butyl-4-hydroxymethylphenol]	2 h	–
CC(C)(C)c1cc(C(=O)O)cc(C(C)(C)C)c1O [B-7, 3,5-Di-tert-butyl-4-hydroxybenzoic acid]	0.333 h	–
CCOP(=O)(Cc1cc(C(C)(C)C)c(O)c(C(C)(C)C)c1)OCC [B-8, Diethyl 3,5-Di-tert-butyl-4-hydroxybenzylphosphonate]	0.333 h	–
CCC(C)(C)c1ccc(O)c(C(C)(C)CC)c1 [B-9, 2,4-Di-tert-amylphenol]	2 h	–
CCc1cc(Cc2cc(CC)cc(C(C)(C)C)c2O)c(O)c(C(C)(C)C)c1 [B-10, 2,2′-Methylenebis(6-tert-butyl-4-ethylphenol)]	0.333 h	–
CC(C)(C)CC(C)(C)c1cc(O)c(C(C)(C)CC(C)(C)C)cc1O [B-11, 2,5-Bis(1,1,3,3-tetramethylbutyl) hydroquinone]	2 h	–
CCCCCCCCSc1nc(Nc2cc(C(C)(C)C)c(O)c(C(C)(C)C)c2)nc(SCCCCCCCC)n1 [B-12]	–	Polymerization time ([2]; class symbol): — (When the PAA was formed within 10 minutes, it was evaluated as “-.”)
CC(C)(C)c1cc(CCC(=O)OCCSCCOC(=O)CCc2cc(C(C)(C)C)c(O)c(C(C)(C)C)c2)cc(C(C)(C)C)c1O [B-13, 2,2″-Thiodiethylene Bis [3-(3,5-di-tert-butyl-4-hydroxyphenyl) propionate]]	–	Polymerization time ([2]; class symbol): — (When the PAA was formed within 10 minutes, it was evaluated as “-.”)
CCc1cc(C(C)(C)C)c(O)c(C(C)(C)C)c1 [B-14, 2,6-Di-tert-butyl-4-ethylphenol]	–	Polymerization time ([2]; class symbol): — (When the PAA was formed within 10 minutes, it was evaluated as “-.”)
CC(C)(C)c1cc(O)c(O)c(C(C)(C)C)c1 [B-17, 3,5-Di-tert-butylcatechol]	5 h	–
CCCCCCCCOc1ccc(C(=O)c2ccccc2)c(O)c1 [B-18, 2-hydroxy-4-n-octyloxybenzophenone]	0.333 h	–
CCCCCCCCSc1nc(Nc2cc(C(C)(C)C)c(O)c(C(C)(C)C)c2)nc(SCCCCCCCC)n1 [B-19]	0.333 h	–
bis(nonylphenyl)amine [B-16]	0.667 h	–
